Results taken from patent US20240067660A1, “MACROCYCLIC SPIROCYCLE DERIVATIVES AS MCL-1 INHIBITORS” (Janssen Pharmaceutica NV, priority 2019, published 2024).
pKi: −log10 of the molar value. Where two headings read alike, the source gives them in different places.

Legend:
MOLP8 cells = assay: MOLP8 CellEvent Caspase-3/7 Green IncuCyte live-cell apoptosis assay; type: cell-based, human
Experimental: (§1) MCL-1 is a regulator of apoptosis and is highly over-expressed in tumor cells that escape cell death. The assay evaluates the cellular potency of small-molecule compounds targeting regulators of the apoptosis pathway, primarily MCL-1, Bfl-1, Bcl-2, and other proteins of the Bcl-2 family. Protein-protein inhibitors disrupting the interaction of anti-apoptotic regulators with BH3-domain proteins initiate apoptosis.
Activation of the apoptotic pathway was measured using the CellEvent™ Caspase-3/7 Green ReadyProbes™ Reagent (Thermo Fisher C10423, C10723). This assay produces a green fluorescent stain in cells that enter the apoptosis pathway. CellEvent® Caspase-3/7 Green reagent is a four amino acid peptide (DEVD) conjugated to a nucleic acid-binding dye that is non-fluorescent when not bound to DNA. The CellEvent® Caspase-3/7 Green reagent is intrinsically non-fluorescent, as the DEVD peptide inhibits binding of the dye to DNA. Upon activation of caspase-3/7 in apoptotic cells, the DEVD peptide is cleaved and the free dye can bind DNA, generating a bright green fluorescence. The activation of Caspase-3 and Caspase-7 is downstream of inhibition of MCL-1 or other apoptosis inhibiting proteins in cell lines that are dependent on them.
The live-cell readout on the IncuCyte permits tracking over time of the Caspase activation. […] The IncuCyte readout also allows one to normalize for cell number, as the suspension cells are hard to distribute evenly.
Signals were measured every 2 h for a duration of 22 h. The ratio of the Caspase mask to the Confluence mask, per image, as raw data, was calculated and the kinetic trace for every well was exported to Genedata Screener for analysis.
In Genedata Screener values for 6 h, 12 h, and 22 h from the kinetic traces were extracted. The values were normalized against negative controls (untreated cells). A standard dose-response analysis was performed on the normalized data.
The following data was reported at each of the following three aforementioned time points: (a) The dose-response curve, (b) The qAC50 and qAC50 Mode, and (c) Max Activity.
Cells were maintained in culture medium containing 10% Heat Inactivated (HI) FBS, 2 mM L-Glutamine and 50 μg/mL Gentamycin phenol red free RPMI-1640. Cells were split at 0.4 million/mL twice a week.
On Day 1, plates containing individual wells with test compounds at 10 mM concentration, 150 nL per well. The final concentrations range from […] compound (and no compound control) and compounds were thawed at room temperature for 1 hour. 25 μl of prewarmed medium was added into each well by multidrop (column 1, 3-22, 24), followed by addition of DMSO control (0.6% DMSO) in column 2. The plate was sealed using Breathe-Easy® sealing membrane and shaken for 30 min at room temperature to dissolve the test compound(s) in medium. The plate was then kept in the incubator for 1 hour at 37° C., 5% CO2.
MOLP8 cells in medium at […] (20000/50 μl final in assay) were prepared with CellEvent™ Caspase-3/7 Green Detection Reagent at 4 μM (2 μM final in assay). Once prepared, the cells were added to the test compound plate in an amount of 20000 and the plate was immediately placed in the IncuCyte and imaging started using following settings: 10× objective, 2 s exposure time in green channel, interval of 2 h, acquisition stopped after 22 h.
For analysis in IncuCyte, a Basic Analysis protocol was defined to calculate the “confluence” and “caspase” areas from the “Phase” and “green” images, respectively, as follows: (a) Confluence: Segmentation Adjustment 1, Hole Fill 0, Adjust Size −2, No filters (b) Caspase: Top-Hat segmentation, Radius 10, Threshold 0.3 GCU, Edge Split On with sensitivity 0, Hole Fill 0, Adjust Size 1, and filter on a minimum Area of 20 μm^2. The analyzer is trained on a sufficient number of positive and negative control wells, as well as compound treated wells, verifying that the “confluence” layer detects both live and dead (condensed) cells. […]

[1] = tested on: MOLP-8 human multiple myeloma cell line; assay: Caspase-Glo 3/7 assay in MOLP-8 cells; type: cell-based; conditions: Homo sapiens, MOLP-8, 2 h, Caspase-Glo 3/7, 2 hours incubation; averaged over all runs on all batches; read-out: MOLP8 AC50
Source text: as §1
The Caspase-Glo® 3/7 Assay is a luminescent assay that measures caspase-3 and -7 activities in purified enzyme preparations or cultures of adherent or suspension cells. The assay provides a proluminescent caspase-3/7 substrate, which contains the tetrapeptide sequence DEVD. This substrate is cleaved to release aminoluciferin, a substrate of luciferase used in the production of light. Addition of the single Caspase-Glo® 3/7 Reagent in an “add-mix-measure” format results in cell lysis, followed by caspase cleavage of the substrate and generation of a “glow-type” luminescent signal.
This assay uses the MOLP-8 human multiple myeloma cell line, which is sensitive to MCL-1 inhibition.
Cell cultures were maintained between 0.2 and 2.0×10^6 cells/mL. The cells were harvested by collection in 50 mL conical tubes. The cells were then pelleted at 500 g for 5 mins before removing supernatant and resuspension in fresh pre-warmed culture medium. The cells were counted and diluted as needed.
The assay reagent was prepared by transferring the buffer solution to the substrate vial and mixing. The solution may be stored for up to 1 week at 4° C. with negligible loss of signal.
Compounds were delivered in assay-ready plates (Proxiplate) and stored at −20° C. Assays always include 1 reference compound plate containing reference compounds. The plates were spotted with 40 nL of compounds (0.5% DMSO final in cells; serial dilution; 30 μM highest conc. 1/3 dilution, 10 doses, duplicates). The compounds were used at room temperature and 4 μL of pre-warmed media was added to all wells except column 2 and 23. The negative control was prepared by adding 1% DMSO in media. The positive control was prepared by adding the appropriate positive control compound in final concentration of 60 μM in media. The plate was prepared by adding 4 μL negative control to column 23, 4 μL positive control to column 2 and 4 μL cell suspension to all wells in the plate. The plate with cells was then incubated at 37° C. for 2 hours. The assay signal reagent is the Caspase-Glo solution described above, and 8 μL was added to all wells. The plates were then sealed and measured after 30 minutes.
The activity of a test compound was calculated as percent change in apoptosis induction as follows: […]

[2] = target: Myeloid Cell Leukemia 1(Mcl-1) (Homo sapiens (Human), UniProt Q07820); assay: Terbium labeled Mcl-1 HTRF binding assay with Cy5-labeled BIM BH3 peptide
Sequence of Myeloid Cell Leukemia 1(Mcl-1) (Q07820 whole entry): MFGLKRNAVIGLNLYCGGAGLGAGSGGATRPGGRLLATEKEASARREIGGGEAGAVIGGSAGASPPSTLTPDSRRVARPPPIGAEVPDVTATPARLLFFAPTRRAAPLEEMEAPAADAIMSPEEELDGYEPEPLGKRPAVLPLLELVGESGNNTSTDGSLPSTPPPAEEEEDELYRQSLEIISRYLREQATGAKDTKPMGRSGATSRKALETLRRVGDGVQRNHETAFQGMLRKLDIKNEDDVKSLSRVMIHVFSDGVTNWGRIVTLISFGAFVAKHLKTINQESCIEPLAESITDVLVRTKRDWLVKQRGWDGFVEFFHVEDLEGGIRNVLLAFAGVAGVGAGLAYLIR
Experimental: Terbium labeled Myeloid Cell Leukemia 1(Mcl-1) homogeneous time-resolved fluorescence (HTRF) binding assay utilizing the BIM BH3 peptide (H2N-(C/Cy5Mal) WIAQELRRIGDEFN-OH) as the binding partner for Mcl-1.
This assay evaluated inhibition of the BH3 domain: Mcl-1 interaction by measuring the displacement of Cy5-labeled BIM BH3 peptide (H2N—(C/Cy5Mal) WIAQELRRIGDEFN-OH) in the HTRF assay format.
The following assay and stock buffers were prepared for use in the assay: (a) Stock buffer: 10 mM Tris-HCl, pH=7.5+150 mM NaCl, filtered, sterilized, and stored at 4° C.; and (b) 1× assay buffer, where the following ingredients were added fresh to stock buffer: 2 mM dithiothreitol (DTT), 0.0025% Tween-20, 0.1 mg/mL bovine serum albumin (BSA). The 1×Tb-Mcl-1+Cy5 Bim peptide solution was prepared by diluting the protein stock solution using the 1× assay buffer (b) to 25 pM Tb-Mcl-1 and 8 nM Cy5 Bim peptide.
Using the Acoustic ECHO, 100 nL of 100× test compound(s) were dispensed into individual wells of a white 384-well Perkin Elmer Proxiplate, for a final compound concentration of lx and final DMSO concentration of 1%. Inhibitor control and neutral control (NC, 100 nL of 100% DMSO) were stamped into columns 23 and 24 of assay plate. Into each well of the plate was then dispensed 10 μL of the 1×Tb-Mcl-1+Cy5 Bim peptide solution. The plate was centrifuged with a cover plate at 1000 rpm for 1 minute, then incubated for 60 minutes at room temperature with plates covered.
The TR-FRET signal was read on an BMG PHERAStar FSX MicroPlate Reader at room temperature using the HTRF optic module (HTRF: excitation: 337 nm, light source: laser, emission A: 665 nm, emission B: 620 nm, integration start: 60 μs, integration time: […]).
The BMG PHERAStar FSX MicroPlate Reader was used to measure fluorescence intensity at two emission wavelengths—665 nm and 620 nm—and report relative fluorescence units (RFU) for both emissions, as well as a ratio of the emissions (665 nm/620 nm)*10,000. The RFU values were normalized to percent inhibition as follows:
% inhibition=((NC−IC)−(compound−IC))/(NC−IC))*100
where IC (inhibitor control, low signal)=mean signal of 1×Tb-MCl-1+Cy5 Bim peptide+inhibitor control or 100% inhibition of Mcl-1; NC (neutral control, high signal)=mean signal 1×Tb-MCl-1+Cy5 Bim peptide with DMSO only or 0% inhibition An 11-point dose response curve was generated to determine IC50 values (using GenData) based on the following equation:
Y=Bottom+(Top−Bottom)/(1+10^((IogIC50−X)*HillSlope))
where Y=% inhibition in the presence of X inhibitor concentration; Top=100% inhibition derived from the IC (mean signal of Mcl-1+inhibitor control); Bottom=0% inhibition derived from the NC (mean signal of Mcl-1+DMSO); Hillslope=Hill coefficient; and IC50=concentration of compound with 50% inhibition in relation to top/neutral control (NC).
In this assay [L]=8 nM and Kd=10 nM

[3] = Homo sapiens, MOLP-8, 6 h, 6 h, read-out: MOLP8 Caspase 3/7 AC50 at 6 h
[4] = Homo sapiens, MOLP-8, 12 h, 12 h, read-out: MOLP8 Caspase 3/7 AC50 at 12 h
[5] = Homo sapiens, MOLP-8, 22 h, 22 h, read-out: MOLP8 Caspase 3/7 AC50 at 22 h
[6] = obtained after recalibration of the equipment, averaged values over several runs
[7] = 6 h, read-out: MOLP8 Caspase 3/7 AC50 at 6 h
[8] = 12 h, read-out: MOLP8 Caspase 3/7 AC50 at 12 h
[9] = 22 h, read-out: MOLP8 Caspase 3/7 AC50 at 22 h
[10] = first table, [L]=8 nM, Kd=10 nM, before recalibration of the equipment

Compound	AC50 (MOLP8 cells; [3])	AC50 (MOLP8 cells; [4])	AC50 (MOLP8 cells; [5])	AC50 [1]	also measured
C[C@@H]1[C@@H](C)C/C=C(\F)[C@H](COCCN2CCOCC2)N2CC[C@H]2CN2C[C@@]3(CCCc4cc(Cl)ccc43)COc3ccc(cc32)C(=O)NS1(=O)=O [Compound 30]	630 nM	560 nM	620 nM		
COCC1(COC)/C(F)=C/C[C@H](C)[C@@H](C)S(=O)(=O)NC(=O)c2ccc3c(c2)N(C[C@@H]2CCN21)C[C@@]1(CCCc2cc(Cl)ccc21)CO3 [Compound 37]				253 nM	pKi [2, 6]: 9.35
C[C@@H]1[C@@H](C)C/C=C(\F)[C@H](CN2CCOCC2)N2CC[C@H]2CN2C[C@@]3(CCCc4cc(Cl)ccc43)COc3ccc(cc32)C(=O)NS1(=O)=O [Compound 33]	330 nM	340 nM	560 nM		
C[C@@H]1[C@@H](C)C/C=C(\F)[C@H](COCCCN2CCOCC2)N2CCC[C@H]2CN2C[C@@]3(CCCc4cc(Cl)ccc43)COc3ccc(cc32)C(=O)NS1(=O)=O [Compound 34]				458 nM	pKi [2, 6]: 9.68
C[C@@H]1[C@@H](C)C/C=C(/F)CN2CC[C@H]2CN2C[C@@]3(CCCc4cc(Cl)ccc43)COc3ccc(cc32)C(=O)NS1(=O)=O [Compound 1]	7760 nM	~10500 nM	7940 nM		
C[C@@H]1[C@@H](C)C/C=C/CN2CC[C@H]2CN2CC3(CCOc4cc(Cl)ccc43)COc3ccc(cc32)C(=O)NS1(=O)=O (single isomer, unassigned) [Compound 6]					AC50 (MOLP8 cells; [7]): > 30000 nM; AC50 (MOLP8 cells; [8]): > 30000 nM; AC50 (MOLP8 cells; [9]): > 30000 nM
C[C@@H]1[C@@H](C)C/C=C/CN2CC[C@H]2CN2CC3(CCOc4cc(Cl)ccc43)COc3ccc(cc32)C(=O)NS1(=O)=O (single isomer, unassigned) [Compound 5]				3740 nM	AC50 (MOLP8 cells; [7]): 6310 nM; AC50 (MOLP8 cells; [8]): 6600 nM; AC50 (MOLP8 cells; [9]): 5750 nM
C[C@@H]1[C@@H](C)C/C=C(\F)CN2CC[C@H]2CN2C[C@@]3(CCCc4cc(Cl)ccc43)COc3ccc(cc32)C(=O)NS1(=O)=O [Compound 2]	~970 nM	~1050 nM	1200 nM	692 nM	
C[C@@H]1[C@@H](C)C/C=C(\F)[C@H](CN2CCN3CCN(C)C[C@@H]3C2)N2CC[C@H]2CN2C[C@@]3(CCCc4cc(Cl)ccc43)COc3ccc(cc32)C(=O)NS1(=O)=O [Compound 32]	1100 nM	960 nM	960 nM		
COCCOCCOC[C@H]1/C(F)=C/C[C@H](C)[C@@H](C)S(=O)(=O)NC(=O)c2ccc3c(c2)N(C[C@@H]2CCN21)C[C@@]1(CCCc2cc(Cl)ccc21)CO3 [Compound 14]	300 nM	350 nM	370 nM		pKi [2, 10]: 9.47
COCCOCC1(COCCOC)/C(F)=C/C[C@H](C)[C@@H](C)S(=O)(=O)NC(=O)c2ccc3c(c2)N(C[C@@H]2CCN21)C[C@@]1(CCCc2cc(Cl)ccc21)CO3 [Compound 41]				152 nM	
C[C@@H]1[C@@H](C)C/C=C/CN2CC[C@H]2CN2C[C@@]3(CCCc4cc(Cl)ccc43)COc3ccc(cc32)C(=O)NS1(=O)=O [Compound 3]	2400 nM	2690 nM	3090 nM		pKi [2, 10]: 8.50
COC[C@H]1/C(F)=C/C[C@H](C)[C@@H](C)S(=O)(=O)NC(=O)c2ccc3c(c2)N(C[C@@H]2CCCN21)C[C@@]1(CCCc2cc(Cl)ccc21)CO3 [Compound 20]	810 nM	700 nM	610 nM		pKi [2, 10]: 9.04
